Reference: paper PMC4038024 (Clinical pharmacology and therapeutics, 2012)
Entries after “also recorded” stand apart in the source; their conditions may differ. Like-named read-outs stand apart in the source and are kept apart here.

Columns and labels:
CYP3A5 [1] = conditions: cited from earlier work
[2] = isolated perfused rat kidney; cited from earlier work
[3] = for mean AUCmetabolite/AUCparent ratio, fold higher in CYP3A5 expressors than nonexpressors: blood, after oral tacrolimus; for CLurinary (based on AUCblood) / CLurinary (based on AUCplasma): 0 to 96-hour collection; for total amount of tacrolimus excreted in urine as unchanged drug over 96 hours: oral administration
[4] = male rats, tacrolimus orally for four days; cited from earlier work
[5] = design: species or system human; conditions: for k(2,1) (glomerular filtration of tacrolimus) / k(3,1) (secretion from efferent arteriole to renal epithelium): derived from estimated parameters; for fub (exchangeable fraction of tacrolimus in blood during glomerular filtration): ordinary least-squares estimation; for Kp: human, kidney/blood, oral, 5 mg, Kp,kidney (apparent tissue-to-blood partitioning coefficient), empirical Bayesian estimation
[6] = In vitro unbound fraction of tacrolimus in plasma and whole blood; type: in vitro ADME; conditions: whole blood
clinical = conditions: human, 5 mg; for half-life: blood, po, single oral dose 5 mg; for concentration at 96 h: whole blood, oral, Clast, blood concentration at 96 hour
CYP3A5 [7] = target: CYP3A5 (Homo sapiens, UniProt P20815); experiment: Metabolic clearance by CYP3A5; conditions: compared with tacrolimus; Supplemental Figure 1
[8] = tested on: mouse mixed lymphocyte reaction; conditions: compared with tacrolimus; cited from earlier work

CYP3A5 (Homo sapiens, UniProt P20815), sequence (P20815 whole entry): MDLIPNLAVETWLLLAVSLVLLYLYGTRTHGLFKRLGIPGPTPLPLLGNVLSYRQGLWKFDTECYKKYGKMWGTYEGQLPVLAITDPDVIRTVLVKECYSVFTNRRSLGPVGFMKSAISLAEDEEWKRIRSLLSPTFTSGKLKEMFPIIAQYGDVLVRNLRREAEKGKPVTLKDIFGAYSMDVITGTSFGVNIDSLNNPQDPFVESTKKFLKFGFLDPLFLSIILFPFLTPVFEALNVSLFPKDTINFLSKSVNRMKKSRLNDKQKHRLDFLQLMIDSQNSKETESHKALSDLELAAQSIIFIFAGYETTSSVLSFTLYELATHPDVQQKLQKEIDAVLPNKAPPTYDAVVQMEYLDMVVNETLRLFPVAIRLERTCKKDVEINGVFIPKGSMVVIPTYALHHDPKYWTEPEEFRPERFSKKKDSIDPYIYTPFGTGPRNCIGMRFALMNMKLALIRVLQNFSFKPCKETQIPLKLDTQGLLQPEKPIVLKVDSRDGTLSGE

For `Cc1ncc2n1-c1ccc(Cl)cc1C(c1ccccc1F)=NC2` [midazolam], the “hydroxylation activity, fold higher in CYP3A5*1/*3 than CYP3A5*3/*3 kidney microsomes” value (CYP3A5 [1]) is given as 18 fold.
For `CCOC(=O)[C@H](CCc1ccccc1)N[C@@H](C)C(=O)N1CCC[C@H]1C(=O)O` [enalapril], the “urinary clearance following inhibition of hydrolysis to enalaprilate by paraoxon” value [2] is given as “increased”.
In the case of `C=CCC1C=C(C)CC(C)CC(O)C2OC(O)(C(=O)C(=O)N3CCCCC3C(=O)OC(C(C)=CC3CCC(O)C(OC)C3)C(C)C(O)CC1=O)C(C)CC2OC` (centres unmarked) [15-DMT, 15-O-desmethyl tacrolimus], the “renal excretion in the two genotyped groups” value ([3]; CYP3A5 expressors vs nonexpressors) is reported as “similar” and the “mean AUCmetabolite/AUCparent ratio, fold higher in CYP3A5 expressors than nonexpressors” value [3] is reported as “did not differ; also recorded: similar”.
With `C=CC[C@@H]1/C=C(\C)C[C@H](C)C[C@H](OC)[C@H]2O[C@@](O)(C(=O)C(=O)N3CCCC[C@H]3C(=O)O[C@H](/C(C)=C/[C@@H]3CC[C@@H](O)[C@H](OC)C3)[C@H](C)[C@@H](O)CC1=O)[C@H](C)C[C@@H]2OC` [tacrolimus] the “CLurinary (based on AUCblood)” value ([3]; CYP3A5 expressors (N=12)) was 2.01 ± 0.57 mL/h, the “CLurinary (based on AUCplasma)” value ([3]; CYP3A5 expressors (N=12)) was 50.15 ± 13.67 mL/h and the “CLurinary (based on AUCblood)” value ([3]; CYP3A5 nonexpressors (N=12)) was 3.15 ± 1.69 mL/h. For the same compound, the “CLurinary (based on AUCplasma)” value ([3]; CYP3A5 nonexpressors (N=12)) was 97.71 ± 59.89 mL/h, the “CLurinary/eGFR (based on AUCblood)” value ([3]; CYP3A5 expressors (N=12)) was 0.028 ± 0.012% and the “CLurinary/eGFR (based on AUCplasma)” value ([3]; CYP3A5 expressors (N=12)) was 0.58 ± 0.28%. For the same compound, the “total amount of tacrolimus excreted in urine as unchanged drug over 96 hours” value ([3]; CYP3A5 expressors) was 271.6 ± 147.4 ng, the “CLurinary/eGFR (based on AUCblood)” value ([3]; CYP3A5 nonexpressors (N=12)) was 0.048 ± 0.032% and the “CLurinary/eGFR (based on AUCplasma)” value ([3]; CYP3A5 nonexpressors (N=12)) was 1.48 ± 1.10%. The “total amount of tacrolimus excreted in urine as unchanged drug over 96 hours” value ([3]; CYP3A5 nonexpressors) was 642.6 ± 349.6 ng, the “mean apparent urinary tacrolimus clearance, lower in CYP3A5 expressors compared to nonexpressors” value ([3]; based on blood AUC) was 36% and the “mean apparent urinary tacrolimus clearance, lower in CYP3A5 expressors compared to nonexpressors” value ([3]; based on plasma AUC) was 49%. The “AUC0–96 Difference (%)” value ([3]; expressors vs nonexpressors) was −35.2%, the “AUC0–inf Difference (%)” value ([3]; expressors vs nonexpressors) was −36.5% and the “CL/F Difference (%)” value ([3]; expressors vs nonexpressors) was 54.8%. The “CLurinary (based on AUCblood) Difference (%)” value ([3]; expressors vs nonexpressors) was −36.2%, the “CLurinary (based on AUCplasma) Difference (%)” value ([3]; expressors vs nonexpressors) was −48.7% and the “CLurinary/eGFR (based on AUCblood) Difference (%)” value ([3]; expressors vs nonexpressors) was −41.7%. For the same compound, the “Clast Difference (%)” value ([3]; expressors vs nonexpressors) was −46.2%, the “oral tacrolimus clearance (CL/F), fold higher in CYP3A5 expressors compared to nonexpressors” value ([3]; mean, expressors vs nonexpressors) was 1.6 fold and the “Clast (blood concentration at 96 hours), fold higher in CYP3A5 nonexpressors compared to expressors” value ([3]; nonexpressors vs expressors) was 1.9 fold. For the same compound, the “Kp,kid” value [4] was 12.2, the “hydroxylation activity, fold higher in CYP3A5*1/*3 than CYP3A5*3/*3 kidney microsomes” value (CYP3A5 [1]) was 18 fold and the “ER greater than fub′” value [5] was ~ 400 fold. The “ER (extraction ratio of tacrolimus from the efferent arteriole)” value ([5]; CYP3A5 expressors) was 5.1 ± 3.0%, the “k(0,3) (rate constant, CYP3A5-mediated intra-epithelial metabolism)” value ([5]; CYP3A5 expressors) was 0.55 ± 0.52 h⁻¹ and the “k(1,3) (back flux from renal epithelium to efferent arteriole)” value ([5]; CYP3A5 expressors) was 0.34 ± 0.05 h⁻¹. For the same compound, the “k(2,3) (secretion from renal epithelium to tubular lumen)” value ([5]; CYP3A5 expressors) was 0.0009 ± 0.0005 h⁻¹, the “k(3,2) (reabsorption from tubular fluid back to renal epithelium)” value ([5]; CYP3A5 expressors) was 0.091 ± 0.063 h⁻¹ and the “k(2,1) (glomerular filtration of tacrolimus)” value ([5]; CYP3A5 expressors) was 0.94 ± 0.76 mL/h. For the same compound, the “k(3,1) (secretion from efferent arteriole to renal epithelium)” value ([5]; CYP3A5 expressors) was 2368 ± 1404 mL/h, the “fub (exchangeable fraction of tacrolimus in blood during glomerular filtration)” value ([5]; CYP3A5 expressors) was 0.014 ± 0.015% and the “ER (extraction ratio of tacrolimus from the efferent arteriole)” value ([5]; CYP3A5 nonexpressors) was 4.3 ± 4.7%. The “k(1,3) (back flux from renal epithelium to efferent arteriole)” value ([5]; CYP3A5 nonexpressors) was 0.36 ± 0.39 h⁻¹, the “k(2,3) (secretion from renal epithelium to tubular lumen)” value ([5]; CYP3A5 nonexpressors) was 0.0012 ± 0.0008 h⁻¹ and the “k(3,2) (reabsorption from tubular fluid back to renal epithelium)” value ([5]; CYP3A5 nonexpressors) was 0.106 ± 0.057 h⁻¹. For the same compound, the “k(2,1) (glomerular filtration of tacrolimus)” value ([5]; CYP3A5 nonexpressors) was 0.77 ± 0.51 mL/h, the “k(3,1) (secretion from efferent arteriole to renal epithelium)” value ([5]; CYP3A5 nonexpressors) was 1800 ± 1734 mL/h and the “fub (exchangeable fraction of tacrolimus in blood during glomerular filtration)” value ([5]; CYP3A5 nonexpressors) was 0.011 ± 0.006%. The “in vivo fub′ (exchangeable fraction in blood) estimated from modeling” value ([5]; all subjects) was 0.012 ± 0.011%, the Kp ([5]; CYP3A5 expressors) was 12.1 ± 0.3 and the Kp ([5]; CYP3A5 nonexpressors) was 23.4 ± 0.04. For the same compound, the “Kp,kidney in CYP3A5 expressors as % of that calculated for nonexpressors” value ([5]; steady-state tissue-to-blood partitioning ratio) was ~50%, the fraction unbound [6] was 0.00078 ± 0.00026 and the half-life (clinical; t1/2, CYP3A5 expressors (N=12)) was 29.9 ± 4.8 h. The half-life (clinical; t1/2, CYP3A5 nonexpressors (N=12)) was 31.7 ± 4.3 h, the concentration at 96 h (clinical; CYP3A5 expressors (N=12)) was 0.2 ± 0.1 ng/mL and the concentration at 96 h (clinical; CYP3A5 nonexpressors (N=12)) was 0.4 ± 0.1 ng/mL.
For `C=CCC1C=C(C)CC(C)CC(OC)C2OC(O)(C(=O)C(=O)N3CCCCC3C(=O)OC(C(C)=CC3CCC(O)C(OC)C3)C(C)C(O)CC1=O)C(C)CC2O` (centres unmarked) [13-DMT, 13-O-desmethyl tacrolimus], the “mean AUCmetabolite/AUCparent ratio, fold higher in CYP3A5 expressors than nonexpressors” value [3] was 2.0 fold.
In the case of `C=CCC1C=C(C)CC(C)CC(OC)C2OC(O)(C(=O)C(=O)N3CCCCC3C(=O)OC(C(C)=CC3CCC(O)C(O)C3)C(C)C(O)CC1=O)C(C)CC2OC` (centres unmarked) [31-DMT, 31-O-desmethyl tacrolimus], the “metabolic clearance by CYP3A5” value (CYP3A5 [7]) is listed as “comparable to that of tacrolimus”, the “mean AUCmetabolite/AUCparent ratio, fold higher in CYP3A5 expressors than nonexpressors” value [3] is listed as 2.5 fold and the immunosuppressive activity [8] is listed as “same immunosuppressive activity as tacrolimus”.
